The source of these data is patent publication US20080207522A1, “Antimicrobial Peptides” (priority 2004, published 2008).

For assay [1], the system named is Pseudomonas aeruginosa strain H1001. Nature of the assay: Assay for the cleaved (free, soluble) peptides from cellulose support, luminescence killing assay. In kind it is cell-based. The conditions noted are these: free (cleaved) peptides, killing relative to Bac2A. More on the design: key: 1: Peptides showing stronger killing than Bac2A at a 4 to 8-fold higher dilution; Peptides showing stronger killing compared to that of Bac2A at a 4-fold higher dilution; 3: Peptides similar to Bac2A; 4: Peptides similar to Bac2A at the highest concentration but demonstrating weaker killing at a 2-fold dilution; 5: Peptides giving very weak or no killing at a 2-fold dilution; 6: Peptides with weak killing activity at the highest concentration. On the procedure:
Assay for the cleaved peptides from cellulose support. The peptides were cleaved from the dried membrane in an ammonia atmosphere overnight, resulting in free peptides with an amidated C-terminus. The free peptides contained two β-alanines at the C-terminus, in addition to being amidated due to the linker between the cellulose membrane and the peptide sequence. The peptide spots were punched out and transferred in a 96-well microtiter plate. Serial dilutions were carried out from the membrane spots. Four rows were filled with four controls including two with Bac2A and two with of an unrelated peptide. The other eight rows were used for serial dilution steps of the peptide variants. An overnight culture of Pseudomonas aeruginosa strain H1001 was diluted 1:500 using either LB media or 100 mM Tris buffer pH 7.3, 20 mM glucose and was added to the wells (100 μl/well) containing the peptide spots. In all other wells 50 μl were added. The microtiter plate was incubated for 30 min at 37° C. to release the peptides from the membrane. Subsequently, a dilution series were performed and the plate was incubated at 37° C. The luminescence produced by the ATP dependent luciferase system were detected in a time dependent manner using a Tecan Spectra Fluor plus.
(§1) Strains. For the killing assay a mini-Tn5-lux mutant in Pseudomonas aeruginosa H103 was used. The strain is called H1001 and contains a fliC::luxCDABE transcriptional fusion resulting in constitutive expression of luciferase. The bacterial strains used for the antimicrobial activity assays included Escherichia coli UB1005 (F-, nalA37, metB1), a wild-type Salmonella enterica ssp. Typhimurium (S. Typhimurium), wild-type Pseudomonas aeruginosa PAO1 strain H103, Enterococcus faecalis ATCC29212, Staphylococcus aureus ATCC25923, and a clinical isolate of Staphylococcus epidermidis obtained from Dr. D. Speert (Department of Medicine, University of British Columbia). Antifungal activity was tested using a lab isolate of Candida albicans obtained from Dr. B. Dill (Department of Microbiology and Immunology, University of British Columbia).
Peptide synthesis on cellulose is a very effective and inexpensive way to investigate many different peptide variants for one particular activity. However, one of the problems of this technique is the low peptide density synthesized on the membrane, about 280 nmol per cm2. An average peptide spot used for the experiments presented is about 0.3 cm2. Therefore, an assay had to be developed that was sensitive enough to show activity with this amount of peptides. P. aeruginosa H1001 has a reporter system (e.g., a luciferase gene cassette) incorporated into the bacterial chromosome in the fliC gene (involved in flagellar biosynthesis) that is constitutively expressed. It will thus produce light if ATP is present. When this strain is killed, e.g. by peptides, the amount of light produced will decrease due to a decrease in ATP levels in the killed cells. This action can thus be monitored by detecting luminescence in a microtiter plate luminescence reader over time. The volume and amount of cells per well were optimized for this assay. After screening, the killing action was monitored with small amounts of the parent peptide Bac2A (2 μg/ml of free peptide).
Forty-nine scrambled peptides (Bac002-Bac050) were synthesized on the cellulose support and then cleaved by ammonia gas resulting in free peptides with an amidated C-terminus including the linker. The peptide spots were transferred to a 96-well microtiter plate and incubated for 30 min to dissociate the peptides from the cellulose. After serial dilution and addition of strain H1001, luminescence was recorded in a time dependent manner (FIG. 1). All 50 scrambled peptides were compared to Bac2A ([…]-NH2; SEQ ID NO: 1) by this assay (see Table 2). […] Further since all scrambled peptides had some activity, a sequence-specific interaction of the peptides with a receptor or target could be excluded.

Assay [2] relates to Pseudomonas aeruginosa strain H1001 fliC::luxCDABE. As to the kind of experiment: Luminescence-based assay for the non-cleaved (bound) peptides on cellulose membranes. In kind it is cell-based. The conditions noted are these: for Luminescence at the given time in minutes: 0 / Luminescence at the given time in minutes: 20 / Luminescence at the given time in minutes: 40 / Luminescence at the given time in minutes: 60 / Luminescence at the given time in minutes: 80 / Luminescence at the given time in minutes: 100 / Luminescence at the given time in minutes: 120 / Luminescence at the given time in minutes: 180 / Luminescence at the given time in minutes: 240: cellulose-bound peptide; for Luminescence at the given time in minutes: 0: 0 min; for Luminescence at the given time in minutes: 20: 20 min; for Luminescence at the given time in minutes: 40: 40 min; for Luminescence at the given time in minutes: 60: 60 min; for Luminescence at the given time in minutes: 80: 80 min; for Luminescence at the given time in minutes: 100: 100 min; for Luminescence at the given time in minutes: 120: 120 min; for Luminescence at the given time in minutes: 180: 180 min; for Luminescence at the given time in minutes: 240: 240 min; for Activity Class bound: uncleaved cellulose-bound peptides. On the procedure: Luminescence-based MIC assay for the non-cleaved peptides on cellulose membranes. The peptide spots were punched out and transferred to a 96 well microtiter plate with a clear polystyrene bottom and opaque white polypropylene sides (PerkinElmer, Boston, USA). The spots were washed two times with 100% ethanol for 5 min and afterwards equilibrated five times with 100 mM Tris buffer pH 7.3 for 5 min. An overnight culture of Pseudomonas aeruginosa strain H1001 fliC::luxCDABE was diluted 1:50 in new MH medium and incubated at 37° C. to an OD600 of 0.35. This bacterial culture was diluted 1:25 into 10 mM Tris-HCl buffer, pH 7.3 containing 20 mM glucose. Fifty μl of this culture was added to all wells of the microtiter plate and incubated at 37° C. The luminescence of the strain produced by the ATP-dependent luciferase system was detected in a time dependent manner using a Tecan Spectra Fluor plus (Tecan, Austria). At the end of the experiment, the membranes were cleaned by washing the spots two times with 100% ethanol for five minutes. After removing the ethanol the membrane was air-dried.
as §1
The same set of peptides, as well as the reversed sequence of Bac2A-R ([…]; SEQ ID NO: 2166), were synthesized on cellulose and left uncleaved. The production of light was initially compared in wells containing spots of Bac2A, Bac2A-R (with the reversed sequence of Bac2A), the unrelated negative-control peptide, or, as additional controls, only cellulose, or only bacteria (FIG. 2).
As a control, the negative control (unrelated) peptide Bac429 and parent peptide Bac2A (=Bac001) were used in several different wells of the microtiter plate. Luminescence (relative light units; RLU) was measured at 14 different time points, 9 of which are shown. To permit comparison of the data with the free peptide data set, the result for each peptide was classified into six different groups, like the data set with the free peptides (Table 2). […] For the soluble peptides the following classes were established: […]

In the case of ARIARRVRILVV [Bac021], the “Activity Class Soluble” value in assay [1] was found to be 4. In assay [2], the “Luminescence at the given time in minutes: 0” value (“Luminescence … in minutes: 0” below) came out at 5470 RLU, the “Luminescence at the given time in minutes: 20” value (shortened to “Luminescence … in minutes: 20”) amounted to 7247 RLU, the “Luminescence at the given time in minutes: 40” value (from here on “Luminescence … in minutes: 40”) came out at 4581 RLU and the “Luminescence at the given time in minutes: 60” value (“Luminescence … 60” for short) turned out to be 1967 RLU. In addition, in assay [2], the “Luminescence at the given time in minutes: 80” value (“Luminescence … in minutes: 80” for short) is listed as 683 RLU, the “Luminescence at the given time in minutes: 100” value (“Luminescence … 100” for short) is 278 RLU, the “Luminescence at the given time in minutes: 120” value (from here on “Luminescence … 120”) is listed as 196 RLU and the “Luminescence at the given time in minutes: 180” value (from here on “Luminescence … 180”) came to 129 RLU. Further, in assay [2], the “Luminescence at the given time in minutes: 240” value (from here on “Luminescence … 240”) came to 128 RLU and the “Activity Class bound” value is 3 (Peptides similar to Bac2A resulting in lux values of less than 500 after 240 min.).
Turning to ARRARIRILVVV [Bac032], the “Activity Class Soluble” value in assay [1] is 4. Also, in assay [2], the “Luminescence … in minutes: 0” value is given as 4649 RLU, the “Luminescence … in minutes: 20” value is recorded as 6342 RLU, the “Luminescence … in minutes: 40” value stood at 4584 RLU and the “Luminescence … 60” value came to 2088 RLU. Also, in assay [2], the “Luminescence … in minutes: 80” value is listed as 595 RLU, the “Luminescence … 100” value is reported as 148 RLU, the “Luminescence … 120” value is on record as 107 RLU and the “Luminescence … 180” value was determined as 54 RLU. In assay [2], the “Luminescence … 240” value is given as 33 RLU and the “Activity Class bound” value is 3 (Peptides similar to Bac2A resulting in lux values of less than 500 after 240 min.).
For the sequence ARRLIVRVRVIA [Bac003], the “Activity Class Soluble” value in assay [1] worked out at 5. Moreover, in assay [2], the “Luminescence … in minutes: 0” value was 4138 RLU, the “Luminescence … in minutes: 20” value was 5992 RLU, the “Luminescence … in minutes: 40” value turned out to be 3320 RLU and the “Luminescence … 60” value is on record as 906 RLU. For the same sequence, in assay [2], the “Luminescence … in minutes: 80” value turned out to be 192 RLU, the “Luminescence … 100” value is 74 RLU, the “Luminescence … 120” value turned out to be 83 RLU and the “Luminescence … 180” value amounted to 76 RLU. In assay [2], the “Luminescence … 240” value turned out to be 36 RLU and the “Activity Class bound” value is 3 (Peptides similar to Bac2A resulting in lux values of less than 500 after 240 min.).
Consider AVRAIRVLRVIR [Bac015], for which the “Activity Class Soluble” value in assay [1] is on record as 3. In assay [2], the “Luminescence … in minutes: 0” value amounted to 4309 RLU, the “Luminescence … in minutes: 20” value is given as 7112 RLU, the “Luminescence … in minutes: 40” value is recorded as 5227 RLU and the “Luminescence … 60” value amounted to 3783 RLU. Also, in assay [2], the “Luminescence … in minutes: 80” value is reported as 2656 RLU, the “Luminescence … 100” value turned out to be 1785 RLU, the “Luminescence … 120” value is recorded as 1398 RLU and the “Luminescence … 180” value was found to be 1244 RLU. Further, in assay [2], the “Luminescence … 240” value is on record as 1320 RLU and the “Activity Class bound” value is on record as 4 (Peptides reducing luminescence (lux) values to between 500 to 1499 after 240 min.).
Regarding AVRVRRRAILVI [Bac011], in assay [1], the “Activity Class Soluble” value is 4. Moreover, in assay [2], the “Luminescence … in minutes: 0” value amounted to 4516 RLU, the “Luminescence … in minutes: 20” value turned out to be 7019 RLU, the “Luminescence … in minutes: 40” value amounted to 5176 RLU and the “Luminescence … 60” value was 3694 RLU. In assay [2], the “Luminescence … in minutes: 80” value was found to be 2076 RLU, the “Luminescence … 100” value was determined as 1222 RLU, the “Luminescence … 120” value is on record as 816 RLU and the “Luminescence … 180” value is on record as 494 RLU. Further, in assay [2], the “Luminescence … 240” value came to 447 RLU and the “Activity Class bound” value is reported as 3 (Peptides similar to Bac2A resulting in lux values of less than 500 after 240 min.).
As for IAARRLIRVVRV [Bac012], in assay [1], the “Activity Class Soluble” value was 3. In assay [2], the “Luminescence … in minutes: 0” value turned out to be 4045 RLU, the “Luminescence … in minutes: 20” value is reported as 7171 RLU, the “Luminescence … in minutes: 40” value came out at 5701 RLU and the “Luminescence … 60” value came out at 5037 RLU. Further, in assay [2], the “Luminescence … in minutes: 80” value was determined as 4631 RLU, the “Luminescence … 100” value is 4418 RLU, the “Luminescence … 120” value stood at 4182 RLU and the “Luminescence … 180” value was 4344 RLU. Moreover, in assay [2], the “Luminescence … 240” value is 5087 RLU and the “Activity Class bound” value was 6 (Peptides having residual luminescence (lux) values greater than 3000 after 240 min.).
For the sequence IARRIVAVRLRV [Bac026], in assay [1], the “Activity Class Soluble” value came out at 3. Moreover, in assay [2], the “Luminescence … in minutes: 0” value is recorded as 4873 RLU, the “Luminescence … in minutes: 20” value is 6389 RLU, the “Luminescence … in minutes: 40” value was determined as 4439 RLU and the “Luminescence … 60” value is 2341 RLU. In assay [2], the “Luminescence … in minutes: 80” value was determined as 1080 RLU, the “Luminescence … 100” value is given as 518 RLU, the “Luminescence … 120” value was determined as 302 RLU and the “Luminescence … 180” value worked out at 201 RLU. For the same sequence, in assay [2], the “Luminescence … 240” value is on record as 208 RLU and the “Activity Class bound” value is on record as 3 (Peptides similar to Bac2A resulting in lux values of less than 500 after 240 min.).
As to IIRAALRRVRVV [Bac009], in assay [1], the “Activity Class Soluble” value stood at 5. Further, in assay [2], the “Luminescence … in minutes: 0” value was determined as 3935 RLU, the “Luminescence … in minutes: 20” value was 6553 RLU, the “Luminescence … in minutes: 40” value is listed as 4936 RLU and the “Luminescence … 60” value is given as 4512 RLU. In assay [2], the “Luminescence … in minutes: 80” value amounted to 3977 RLU, the “Luminescence … 100” value was determined as 3488 RLU, the “Luminescence … 120” value turned out to be 3216 RLU and the “Luminescence … 180” value came out at 3270 RLU. Moreover, in assay [2], the “Luminescence … 240” value was 3104 RLU and the “Activity Class bound” value was 6 (Peptides having residual luminescence (lux) values greater than 3000 after 240 min.).
